The target in the test is T1, human recombinant P2X7 receptors (Homo sapiens, UniProt Q99572).
T1 construct: expressed in transfected cells
T1 sequence (Q99572 1-595): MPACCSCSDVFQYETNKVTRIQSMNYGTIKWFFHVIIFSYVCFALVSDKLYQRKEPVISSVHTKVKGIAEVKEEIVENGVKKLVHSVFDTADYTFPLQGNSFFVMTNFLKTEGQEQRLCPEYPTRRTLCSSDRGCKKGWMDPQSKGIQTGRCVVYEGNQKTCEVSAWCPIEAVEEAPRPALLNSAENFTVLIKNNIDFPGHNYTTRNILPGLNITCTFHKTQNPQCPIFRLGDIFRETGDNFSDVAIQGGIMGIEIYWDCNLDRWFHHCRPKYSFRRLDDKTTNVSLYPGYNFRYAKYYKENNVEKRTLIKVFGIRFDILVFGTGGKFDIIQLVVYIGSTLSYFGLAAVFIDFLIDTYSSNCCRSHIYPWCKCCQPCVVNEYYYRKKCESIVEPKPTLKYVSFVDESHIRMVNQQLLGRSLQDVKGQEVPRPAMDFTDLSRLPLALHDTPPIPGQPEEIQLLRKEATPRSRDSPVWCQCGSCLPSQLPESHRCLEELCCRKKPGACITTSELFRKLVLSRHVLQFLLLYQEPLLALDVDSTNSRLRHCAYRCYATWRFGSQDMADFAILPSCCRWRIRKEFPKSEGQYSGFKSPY
Put plainly: Ethidium Accumulation Assay 1 (HEK293 cells, ATP-induced ethidium uptake). Particulars: HEK293 cells expressing human P2X7; 1 mM ATP; sometimes mean of more than one measurement; read-out: Assay 1 (antagonist pIC50 for blocking ATP responses) (converted). It counts as cell-based. As to the method: Eithidium Accumulation Assay 1
Studies were performed using NaCl assay buffer of the following composition: 140 mM NaCl, 10 mM HEPES [4-(2-hydroxyethyl)-1-piperazine-1-ethanesulfonic acid], 5 mM N-methyl-D-glucamine, 5.6 mM KCl, 10 mM D-glucose, 0.5 mM CaCl2 (pH 7.4).
Human Embryonic Kidney (HEK) 293 cells, stably expressing human recombinant P2X7 receptors, were grown in poly-D-lysine pretreated 96 well plates for 18-24 hours.
The cells were washed twice with 350 μl of the assay buffer, before addition of 50 μl of the assay buffer containing the putative P2X7 receptor antagonist compound. (A small amount of dimethyl sulfoxide, for initially dissolving the compound, is optionally used and present in this 50 μl test compound sample.) The cells were then incubated at room temperature (19-21° C.) for 30 min before addition of ATP and ethidium (100 μM final assay concentration). The ATP concentration was chosen to be close to the EC80 for the receptor type and was 1 mM for studies on the human P2X7 receptor. Incubations were continued for 8 or 16 min and were terminated by addition of 25 μl of 1.3M sucrose containing 4 mM of the P2X7 receptor antagonist Reactive Black 5 (Aldrich). […] Antagonist pIC50 values for blocking ATP responses were determined using iterative curve fitting techniques.

As for `O=C(c1ccccc1Cl)N1CCn2c(nnc2-c2ccc(F)cn2)C1` [Example 118, 7-[(2-chlorophenyl)carbonyl]-3-(5-fluoro-2-pyridinyl)-5,6,7,8-tetrahydro[1,2,4]triazolo[4,3-a]pyrazine], the IC50 is less than 100 nM. To `CC(C)(C)c1nnc2n1CCN(C(=O)c1cccc(C(F)(F)F)c1Cl)C2` [Example 25, 7-{[2-chloro-3-(trifluoromethyl)phenyl]carbonyl}-3-(1,1-dimethylethyl)-5,6,7,8-tetrahydro[1,2,4]triazolo [4,3-a]pyrazine] belongs less than 501 nM. With `Cc1cc(F)ccc1C(=O)N1CCn2c(nnc2-c2cnccn2)C1` [Example 107, 7-[(4-fluoro-2-methylphenyl)carbonyl]-3-(2-pyrazinyl)-5,6,7,8-tetrahydro[1,2,4]triazolo [4,3-a]pyrazine] the figure was less than 100 nM; with `Cn1nccc1-c1nnc2n1CCN(C(=O)c1cccc(Cl)c1Cl)C2` [Example 81, 7-[(2,3-dichlorophenyl)carbonyl]-3-(1-methyl-1H-pyrazol-5-yl)-5,6,7,8-tetrahydro[1,2,4]triazolo [4,3-]pyrazine], less than 100 nM. With `Cn1cccc1-c1nnc2n1CCN(C(=O)c1cccc(Cl)c1Cl)C2` [Example 48, 7-[(2,3-dichlorophenyl)carbonyl]-3-(1-methyl-1H-pyrrol-2-yl)-5,6,7,8-tetrahydro[1,2,4]triazolo [4,3-a]pyrazine] the figure was less than 100 nM; with `O=C(c1ccc(Cl)c(Cl)c1)N1CCn2c(nnc2-c2cnccn2)C1` [Example 115, 7-[(3,4-dichlorophenyl)carbonyl]-3-(2-pyrazinyl)-5,6,7,8-tetrahydro[1,2,4]triazolo[4,3-a]pyrazine], less than 100 nM; with `O=C(c1ccc(Cl)cc1Cl)N1CCn2c(nnc2-c2ccc(F)cn2)C1` [Example 95, 7-[(2,4-dichlorophenyl)carbonyl]-3-(5-fluoro-2-pyridinyl)-5,6,7,8-tetrahydro[1,2,4]triazolo [4,3-a]pyrazine], less than 100 nM. Consider `Cc1ncccc1-c1nnc2n1CCN(C(=O)c1ccc(F)cc1Cl)C2` [Example 74, 7-[(2-chloro-4-fluorophenyl)carbonyl]-3-(2-methyl-3-pyridinyl)-5,6,7,8-tetrahydro[1,2,4]triazolo [4,3-a]pyrazine], for which the IC50 is less than 501 nM. Turning to `Cc1ccc(-c2nnc3n2CCN(C(=O)c2cccc(C(F)(F)F)c2Cl)C3)nc1` [Example 51, 7-{[2-chloro-3-(trifluoromethyl)phenyl]carbonyl}-3-(5-methyl-2-pyridinyl)-5,6,7,8-tetrahydro[1,2,4]triazolo [4,3-a]pyrazine], the IC50 is less than 100 nM. As for `CNc1nnc2n1CCN(C(=O)c1cccc(C(F)(F)F)c1Cl)C2` [Example 21, 7-{[2-chloro-3-(trifluoromethyl)phenyl]carbonyl}-N-methyl-5,6,7,8-tetrahydro[1,2,4]triazolo [4,3-a]pyrazine-3-amine], the IC50 is less than 501 nM. To `O=C(c1cccc(C(F)(F)F)c1Cl)N1CCn2c(nnc2-c2ncccn2)C1` [Example 50, 7-{[2-chloro-3-(trifluoromethyl)phenyl]carbonyl}-3-(2-pyrimidinyl)-5,6,7,8-tetrahydro[1,2,4]triazolo [4,3-a]pyrazine] belongs less than 10 nM.

`Cc1cc(-c2nnc3n2CCN(C(=O)c2cccc(Cl)c2Cl)C3)no1` [Example 49, 7-[(2,3-dichlorophenyl)carbonyl]-3-(5-methyl-3-isoxazolyl)-5,6,7,8-tetrahydro[1,2,4]triazolo [4,3-a]pyrazine]: the IC50 is less than 100 nM. To `O=C(c1ccc(F)cc1Cl)N1CCn2c(nnc2-c2ncc(F)cc2F)C1` [Example 84, 7-[(2-chloro-4-fluorophenyl)carbonyl]-3-(3,5-difluoro-2-pyridinyl)-5,6,7,8-tetrahydro[1,2,4]triazolo [4,3-a]pyrazine] belongs less than 100 nM; to `O=C(c1ccc(F)cc1Cl)N1CCn2c(nnc2-c2cccc3cc[nH]c23)C1` [Example 132, 7-[(2-chloro-4-fluorophenyl)carbonyl]-3-(1H-indol-7-yl)-5,6,7,8-tetrahydro[1,2,4]triazolo[4,3-a]pyrazine], less than 100 nM.

The values above are taken from US8501946B2 (Glaxo Group Limited, priority 2009, dated 2013).
